Experimental data: patent publication US20240132473A1, “SULFOXIMIDE SUBSTITUTED INDAZOLE IRAK4 KINASE INHIBITOR, PREPARATION METHOD THEREOF AND USE THEREOF” (Shanghai Xunhe Pharmaceutical Technology Co. Ltd., priority 2021, published 2024)

Assays:
IRAK4 kinase = IRAK4 kinase (Homo sapiens (Human), UniProt Q9NWZ3); assay: IRAK4 kinase inhibitory activity assay (mobility shift assay, Km ATP); assay type: biochemical; settings: MSA, ATP 37 μM (Km ATP)
Description: The inhibitory activity (IC50) of the compound on IRAK4 kinase under Km ATP was detected by mobility shift assay (MSA). Ten drug concentration gradients were set (initial concentration 1 μM, 3-fold dilution, 2 duplicate wells per concentration). […] After incubation at 28° C. for a period of time, 10 μL of termination buffer was added to terminate the reaction. The conversion rate data was read with Caliper, and then the conversion rate was converted into inhibition rate data. According to the inhibition rate data of each concentration, the IC50 of half inhibitory concentration was calculated by Logit method (Table 3).

[1] = test system: TNF-α secretion in THP-1 cells; assay: Inhibition of LPS-stimulated TNF-α secretion in THP-1 cells (ELISA); assay type: cell-based; settings: Homo sapiens, LPS 1 μg/mL, 4.5 hours
Description: TNF-α is a key cytokine involved in the inflammatory process of the listed autoimmune disease, such as rheumatoid arthritis, psoriatic arthritis, ankylosing spondylitis, psoriasis, Crohn's disease, ulcerative colitis, etc. In this test, TNF-α secretion was triggered by incubation with bacterial lipopolysaccharides (LPS). […] The 96-well plate was rotated at 2000 rpm for 5 minutes, and then 50 μL of supernatant was taken. The content of TNF-α in the supernatant was determined by human ELISA kit, and IC50 value of the compound was calculated by XL-Fit (table 4).

in vivo [2] = settings: rat, po; for half-life: SD; for AUC(0-t) / Cmax / Tmax: 25 mg/kg
Description: SD rats were used as the test animals.
Standard curve and preparation and processing of quality control samples:
Stock solution was diluted with 50% acetonitrile-water to obtain standard working solutions of 0.04, 0.10, 0.20, 0.40, 1.00, 2.00, 4.00 μg/mL, and quality control working solutions of 0.10, 1.00, 3.00 μg/mL. […] 200 μL of acetonitrile (containing 5 ng/mL of the internal standard loratadine) was added. After the vortex oscillation for 3 minutes, the solutions were centrifuged at 15000 rpm at 4° C. for 15 minutes. 100 μL of the supernatant was taken for LC-MS/MS analysis. WinNonlin ® 8.0 was used to calculate the experimental results.

in vivo [3] = settings: ICR, mouse, po
Description: On the day of administration, observations were made approximately 0.5, 1, 2, 4, and 6 hours after the first administration. During day 2 to day 6 of the observation period, observations were made twice a day, once in the morning and once in the afternoon.
Observations included but not limited to: general conditions, behavioral activities, gait and posture, eyes, mouth, nose, gastrointestinal tract, skin hair and urogenital tract.
Weight data were expressed as mean ±standard deviation. Levene's test and one-way analysis of variance were used for comparison between groups. If there was a difference, Dunnet t test was then used.
The maximum tolerated dose refers to the dose administered when the animal was dying.

hERG potassium channel = hERG potassium channel (Homo sapiens (Human), UniProt Q12809); assay: cell-based; settings: for Inhibition rate (%) of hERG current: human
Chain of hERG potassium channel (Q12809 whole entry): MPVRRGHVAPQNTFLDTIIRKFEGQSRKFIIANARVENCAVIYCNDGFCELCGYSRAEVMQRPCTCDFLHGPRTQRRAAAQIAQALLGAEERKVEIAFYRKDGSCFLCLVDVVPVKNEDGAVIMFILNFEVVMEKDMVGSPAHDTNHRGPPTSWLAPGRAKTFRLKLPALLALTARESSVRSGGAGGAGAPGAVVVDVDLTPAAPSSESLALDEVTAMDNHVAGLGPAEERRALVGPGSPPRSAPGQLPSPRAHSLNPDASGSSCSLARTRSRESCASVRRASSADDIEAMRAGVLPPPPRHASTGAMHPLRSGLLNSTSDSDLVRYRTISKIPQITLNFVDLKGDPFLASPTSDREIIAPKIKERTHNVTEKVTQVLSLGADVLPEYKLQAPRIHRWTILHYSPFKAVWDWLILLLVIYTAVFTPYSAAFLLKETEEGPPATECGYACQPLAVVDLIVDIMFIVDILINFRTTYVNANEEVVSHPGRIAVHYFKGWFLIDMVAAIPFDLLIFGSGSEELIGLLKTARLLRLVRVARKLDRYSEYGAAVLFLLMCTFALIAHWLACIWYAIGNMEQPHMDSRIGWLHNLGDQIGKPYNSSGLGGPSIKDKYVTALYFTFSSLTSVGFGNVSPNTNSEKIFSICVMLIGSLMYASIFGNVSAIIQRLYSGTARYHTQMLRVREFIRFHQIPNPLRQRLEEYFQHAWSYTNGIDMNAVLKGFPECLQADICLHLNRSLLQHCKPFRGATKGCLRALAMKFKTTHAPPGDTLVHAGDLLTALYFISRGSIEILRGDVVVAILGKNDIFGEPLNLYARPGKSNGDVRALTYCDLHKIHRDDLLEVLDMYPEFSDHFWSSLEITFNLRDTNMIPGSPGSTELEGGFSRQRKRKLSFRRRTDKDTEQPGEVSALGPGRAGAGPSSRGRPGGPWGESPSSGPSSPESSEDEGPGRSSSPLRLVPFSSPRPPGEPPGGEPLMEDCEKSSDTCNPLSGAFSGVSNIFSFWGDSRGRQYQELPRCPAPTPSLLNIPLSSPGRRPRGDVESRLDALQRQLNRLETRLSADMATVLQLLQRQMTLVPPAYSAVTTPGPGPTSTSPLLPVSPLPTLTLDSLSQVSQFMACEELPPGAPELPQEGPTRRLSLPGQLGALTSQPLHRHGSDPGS
From the text: The rapid activation of delayed rectifier outward potassium current (IKr) in humans is mainly mediated by hERG ion channel and participates in human myocardial cell repolarization. Drug blockade of this current will lead to the appearance of QT interval prolongation syndrome in clinical practice, which can easily induce acute arrhythmia and even sudden death.

Chain of IRAK4 kinase (Q9NWZ3 whole entry): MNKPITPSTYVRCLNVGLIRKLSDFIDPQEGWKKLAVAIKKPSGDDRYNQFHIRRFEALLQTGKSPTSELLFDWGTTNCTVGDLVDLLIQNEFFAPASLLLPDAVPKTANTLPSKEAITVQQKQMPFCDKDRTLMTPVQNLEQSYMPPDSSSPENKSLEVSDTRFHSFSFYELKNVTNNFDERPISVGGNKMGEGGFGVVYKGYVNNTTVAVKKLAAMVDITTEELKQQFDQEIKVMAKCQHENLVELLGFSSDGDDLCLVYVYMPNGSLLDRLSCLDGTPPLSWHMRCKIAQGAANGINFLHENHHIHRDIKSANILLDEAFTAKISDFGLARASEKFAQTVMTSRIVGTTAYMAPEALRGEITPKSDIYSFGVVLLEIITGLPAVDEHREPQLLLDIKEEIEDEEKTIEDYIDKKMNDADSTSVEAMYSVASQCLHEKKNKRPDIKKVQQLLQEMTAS

SMILES | IC50 (IRAK4 kinase) [nM] | IC50 [1] [nM] | half-life (in vivo [2]; in vivo) [h] | AUC(0-t) (in vivo [2]; plasma) [ng·h/mL] | Cmax (in vivo [2]; plasma) [ng/mL] | Tmax (in vivo [2]; plasma) [h] | MTD at 6 days (in vivo [3]) [mg/kg] | Inhibition rate (%) of hERG current (hERG potassium channel; 5 μM) [%] | Inhibition rate (%) of hERG current (hERG potassium channel; 50 μM) [%] | Inhibition rate (%) of hERG current (hERG potassium channel; 500 μM) [%] | Cmax (in vivo [2]; in vivo) [ng/mL] | IC50 (hERG potassium channel) [nM]
COc1cc2nn(CCS(=N)(=O)c3ccncc3)cc2cc1NC(=O)c1coc(-c2ccnc(C)c2)n1 (centres unmarked) [Compound I-15] | 0.7 | 0.9 | 6 | 8230 | 1380 | 5.9 | – | – | – | – | – | –
COc1cc2nn(CCS(=N)(=O)c3ccncc3)cc2cc1NC(=O)c1cnn2cccnc12 (centres unmarked) [Compound I-21] | 0.5 | 0.9 | 5.2 | 9400 | 1520 | 5.8 | > 2000 | 2.3 | 2.1 | 29.7 | – | –
CC(C)(O)c1cc2nn(CCS(C)(=O)=O)cc2cc1NC(=O)c1cccc(C(F)(F)F)n1 [BAY-1834845, reference compound] | – | – | – | – | – | – | – | – | – | – | 201 | –
CC(C)(O)c1cc2nn(CCS(=N)(=O)c3ncnc4ccccc34)cc2cc1NC(=O)c1cccc(C(F)(F)F)n1 (centres unmarked) [Compound I-34] | 0.5 | 0.5 | 5.3 | 8000 | 1630 | 5.5 | > 2000 | -1.6 | 1.0 | 11.5 | – | –
CC(C)(O)c1cc2nn(CCS(=N)(=O)c3ccccc3)cc2cc1NC(=O)c1cnn2cccnc12 (centres unmarked) [Compound I-22] | 0.3 | 0.8 | – | – | – | – | – | – | – | – | – | –
Cc1cc(-c2nc(C(=O)Nc3cc4cn(CCS(=N)(=O)c5ccccc5)nc4cc3N3CCOCC3)co2)ccn1 (centres unmarked) [Compound I-30] | 0.6 | 0.9 | – | – | – | – | – | – | – | – | – | –
CC(C)(O)c1cc2nn(CCS(=N)(=O)c3ccnc4ccccc34)cc2cc1NC(=O)c1cccc(C(F)(F)F)n1 (centres unmarked) [Compound I-10] | 1.1 | 1 | 4.7 | 9000 | 1510 | 6.3 | > 2000 | 0.1 | 0.9 | 20.3 | – | –
COc1cc2nn(CCS(=N)(=O)c3nccs3)cc2cc1NC(=O)c1cccc(C(F)(F)F)n1 (centres unmarked) [Compound I-35] | 0.7 | 0.7 | – | – | – | – | – | – | – | – | – | –
Cc1cc(-c2nc(C(=O)Nc3cc4cn(CCS(=N)(=O)c5ccccn5)nc4cc3N3CCC(O)C3)co2)ccn1 (centres unmarked) [Compound I-20] | 0.6 | 1.1 | 4.5 | 7500 | 1400 | 4.9 | – | – | – | – | – | –
CC(C)(O)c1cc2nn(CCS(C)(=N)=O)cc2cc1NC(=O)c1cccc(C(F)(F)F)n1 (centres unmarked) [MY-004-102, reference compound] | – | 169 | 1.4 | 700 | 235 | 1.3 | 750 | – | – | – | – | ~50000
N=S(=O)(CCn1cc2cc(NC(=O)c3cccc(C(F)(F)F)n3)c(N3CCOCC3)cc2n1)c1ccnc2ccccc12 (centres unmarked) [Compound I-11] | 0.5 | 0.8 | – | – | – | – | – | – | – | – | – | –
Cc1cc(-c2nc(C(=O)Nc3cc4cn(CCS(=N)(=O)c5ccncc5)nc4cc3N3CCC(O)C3)co2)ccn1 (centres unmarked) [Compound I-18] | 0.4 | 1.4 | – | – | – | – | – | – | – | – | – | –
N=S(=O)(CCn1cc2cc(NC(=O)c3cccc(C(F)(F)F)n3)c(N3CCC(O)C3)cc2n1)c1ccnc2ccccc12 (centres unmarked) [Compound I-12] | 0.3 | 0.6 | – | – | – | – | – | – | – | – | – | –
COc1cc2nn(CCS(=N)(=O)c3ccc(F)cc3)cc2cc1NC(=O)c1cccc(C(F)(F)F)n1 (centres unmarked) [Compound I-27] | 0.7 | 1.3 | – | – | – | – | – | – | – | – | – | –
COc1cc2nn(CCS(=N)(=O)c3ccccn3)cc2cc1NC(=O)c1cccc(C(F)(F)F)n1 (centres unmarked) [Compound I-19] | 0.8 | 0.9 | – | – | – | – | – | – | – | – | – | –
N=S(=O)(CCn1cc2cc(NC(=O)c3cnn4cccnc34)c(N3CCOCC3)cc2n1)c1ncccn1 (centres unmarked) [Compound I-33] | 0.4 | 1.4 | – | – | – | – | – | – | – | – | – | –
